Laboratory results: patent publication US20070021430A1, “Novel crystalline form of a phosphoric acid salt of a dipeptidyl peptidase-iv inhibitor” (priority 2003, published 2007)

Key:
solubility in water = format: physicochemical
[1] = solid-state stability / conversion of crystal form; format: physicochemical
Protocol: Form IV was prepared by heating the above monohydrate at 120° C. for about 2 h or by heating the monohydrate above 58° C. for about 8 h. Form IV is metastable and converts into the crystalline monohydrate slowly under ambient conditions and rapidly under high relative humidity (98%) at room temperature. Form IV can also be converted to anhydrate Form I in about 1 h at a temperature above 140° C.

In the case of `N[C@@H](CC(=O)N1CCn2c(nnc2C(F)(F)F)C1)Cc1cc(F)c(F)cc1F` [Form IV, (2R)-4-oxo-4-[3-(trifluoromethyl)-5,6-dihydro[1,2,4]triazolo[4,3-a]pyrazin-7(8H)-yl]-1-(2,4,5-trifluorophenyl)butan-2-amine dihydrogenphosphate anhydrate Form IV], the solubility in water (solubility in water) is reported as “high”, the “conversion into the crystalline monohydrate” value ([1]; ambient conditions) is reported as “slowly” and the “conversion into the crystalline monohydrate” value ([1]; high relative humidity (98%) at room temperature) is reported as “rapidly”. For the same compound, the “physical stability of the crystal form” value ([1]; solid state) was “metastable” and the “time for conversion to anhydrate Form I” value ([1]; temperature above 140° C.) was “about 1 h”.
